Converted amounts (≈) assume the structure as drawn.
Key:
Ent. faecalis = test: MIC in Nutrient Agar; type: cell-based, Enterococcus faecalis; details: Nutrient Agar containing 0.1 μg/ml of inducer; 37° C., 24 hours
Description: (§1) The triclosan-glycosides were added to Nutrient Agar (Oxoid CM0003; Thermofisher Scientific) and organisms were transferred onto the plates surface using a multi-point inoculation device (Oxoid Cathra, Thermofisher Scientific). The latter is essentially a metal plate containing a number of needles. Each needle tip (usually 36 per plate) dips into an organism suspension (in phosphate buffered saline; PBS) and the needles are then moved over the agar plate and lowered onto its surface. In this way the growth of colonies of up to 36 different organisms can be observed on one plate.
(§2) Nutrient Agar No. 2 was prepared according to the manufacturers instructions, autoclaved and cooled to 50° C. Test compounds were then added as filter sterilised solutions (50:50 deionised water:ethanol), to give final concentrations from 256 μg/ml to 0 μg/ml in doubling dilutions. […] The mixtures were swirled then four plates (25 ml molten agar) were poured for each concentration. Plates were dried in a laminar flow cabinet then inoculated with overnight cultures of organisms that had been decimally diluted twice in sterile saline solution (approximately 10^7 cfu/ml) using a multi-point inoculator. Plates were then incubated at 37° C. for 24 hours. MICs were determined as the concentration at which no growth was observed.

Kleb. aerogenes = test: MIC in Nutrient Agar; type: cell-based, Klebsiella aerogenes; details: Nutrient Agar containing 0.1 μg/ml of inducer; 37° C., 24 hours
Description: as §1, §2

E. hermanii = test: MIC in Nutrient Agar; type: cell-based, Escherichia hermanii; details: Nutrient Agar containing 0.1 μg/ml of inducer; 37° C., 24 hours
Description: as §1, §2

Ent. cloacae ATCC 13047 = test: MIC in Nutrient Broth No. 2; type: cell-based, Enterobacter cloacae; details: Nutrient Broth No. 2
Description: (§3) Bacteria species as indicated in Table 1 were incubated for approximately 24 hours at 37° C.
(§4) The tests were repeated with the addition of inducers. Methyl glycoside was the main inducer used, but other suitable inducers include isopropyl-β-D-thiogalactopyranoside, p-nitrophenyl-α-L-arabinopyranoside and p-nitrophenyl-β-D-xylopyranoside. Concentration of inducer in all cases was 100 μg/ml.

Ent. aerogenes = test: MIC in Nutrient Agar; type: cell-based, Enterobacter aerogenes; details: Nutrient Agar containing 0.1 μg/ml of inducer; 37° C., 24 hours
Description: as §1, §2

[1] = test system: Strep. pyogenes ATCC 19615; test: MIC in Nutrient Broth No. 2; type: cell-based, Streptococcus pyogenes; details: Nutrient Broth No. 2
Description: as §3, §4

Kleb. pneumoniae = test: MIC in Nutrient Agar; type: cell-based, Klebsiella pneumoniae; details: Nutrient Agar containing 0.1 μg/ml of inducer; 37° C., 24 hours
Description: as §1, §2

Str. agalactiae = test: MIC in Nutrient Agar; type: cell-based, Streptococcus agalactiae; details: Nutrient Agar containing 0.1 μg/ml of inducer; 37° C., 24 hours
Description: as §1, §2

Str. pyogenes = test: MIC in Nutrient Agar; type: cell-based, Streptococcus pyogenes; details: Nutrient Agar containing 0.1 μg/ml of inducer; 37° C., 24 hours
Description: as §1, §2

[2] = test system: Strep. agalactiae OCC 182; test: MIC in Nutrient Broth No. 2; type: cell-based, Streptococcus agalactiae; details: Nutrient Broth No. 2
Description: as §3, §4

S. aureus = test: MIC in Nutrient Agar; type: cell-based, Staphylococcus aureus; details: 8 strains; Nutrient Agar containing 0.1 μg/ml of inducer; 37° C., 24 hours
Description: as §1, §2

Cr. sakazakii = test: MIC in Nutrient Agar; type: cell-based, Cronobacter sakazakii; details: Nutrient Agar containing 0.1 μg/ml of inducer; 37° C., 24 hours
Description: as §1, §2

E. hermanii ATCC 33650 = test: MIC in Nutrient Broth No. 2; type: cell-based, Escherichia hermanii; details: Nutrient Broth No. 2
Description: as §3, §4

[3] = test system: Staph. saprophyticus ATCC 15305; test: MIC in Nutrient Broth No. 2; type: cell-based, Staphylococcus saprophyticus; details: Nutrient Broth No. 2
Description: as §3, §4

Ser. marcescens = test: MIC in Nutrient Agar; type: cell-based, Serratia marcescens; details: Nutrient Agar containing 0.1 μg/ml of inducer; 37° C., 24 hours
Description: as §1, §2

E. coli = test: MIC in Nutrient Agar; type: cell-based, Escherichia coli; details: 8 strains; Nutrient Agar containing 0.1 μg/ml of inducer; 37° C., 24 hours
Description: as §1, §2

S. haemolyticus = test: MIC in Nutrient Agar; type: cell-based, Staphylococcus haemolyticus; details: Nutrient Agar containing 0.1 μg/ml of inducer; 37° C., 24 hours
Description: as §1, §2

Str. viridans = test: MIC in Nutrient Agar; type: cell-based, Streptococcus viridans; details: Nutrient Agar containing 0.1 μg/ml of inducer; 37° C., 24 hours
Description: as §1, §2

[4] = test system: Kleb. pneumoniae ATCC 10031; test: MIC in Nutrient Broth No. 2; type: cell-based, Klebsiella pneumoniae; details: Nutrient Broth No. 2
Description: as §3, §4

Str. pneumoniae = test: MIC in Nutrient Agar; type: cell-based, Streptococcus pneumoniae; details: Nutrient Agar containing 0.1 μg/ml of inducer; 37° C., 24 hours
Description: as §1, §2

[5] = test system: Bacteria species as indicated in Table 1; test: MIC in Nutrient Broth No. 2 (over organisms of Table 1); type: cell-based; details: all strains of Citrobacter freundii, Enterobacter cloacae, Escherichia coli, Escherichia hermanii, Hafnia alvei, Klebsiella, Proteus, Salmonella, Staphylococcus
Description: as §3, §4

SMILES | MIC (Ent. faecalis) | MIC (Kleb. aerogenes) | MIC (E. hermanii) | MIC (Ent. cloacae ATCC 13047; with inducer 100 μg/ml) | MIC (Ent. cloacae ATCC 13047; without inducer) | MIC (Ent. aerogenes) | MIC ([1]; with inducer 100 μg/ml) | MIC ([1]; without inducer) | MIC (Kleb. pneumoniae) | MIC (Str. agalactiae) | MIC (Str. pyogenes) | MIC ([2]; with inducer 100 μg/ml) | MIC ([2]; without inducer) | MIC (S. aureus) | MIC (Cr. sakazakii) | MIC (E. hermanii ATCC 33650; with inducer 100 μg/ml) | MIC (E. hermanii ATCC 33650; without inducer) | MIC ([3]; with inducer 100 μg/ml) | MIC ([3]; without inducer) | MIC (Ser. marcescens) | other results
OC[C@H]1O[C@H](Oc2cc(Cl)ccc2Oc2ccc(Cl)cc2Cl)[C@H](O)[C@@H](O)[C@H]1O [α-D-Galactoside, triclosan-α-D-galactopyranoside] | >256 mg/L | 32 mg/L (≈ 70.8 µM) | 32 mg/L (≈ 70.8 µM) | 16 mg/L (≈ 35.4 µM) | 32 mg/L (≈ 70.8 µM) | 64 mg/L (≈ 142 µM) | 256 mg/L (≈ 567 µM) | 256 mg/L (≈ 567 µM) | 16 mg/L (≈ 35.4 µM) | >256 mg/L | >256 mg/L | >256 mg/L | >256 mg/L | 4 to 8 mg/L | 32 mg/L (≈ 70.8 µM) | 32 mg/L (≈ 70.8 µM) | 32 mg/L (≈ 70.8 µM) | 64 mg/L (≈ 142 µM) | 64 mg/L (≈ 142 µM) | >256 mg/L | MIC (E. coli): 8 to 32 mg/L; MIC (S. haemolyticus): 8 mg/L (≈ 17.7 µM); MIC (Str. viridans): >256 mg/L; MIC ([4]; with inducer 100 μg/ml): 1 mg/L (≈ 2.21 µM); MIC ([4]; without inducer): 1 mg/L (≈ 2.21 µM); MIC (Str. pneumoniae): 256 mg/L (≈ 567 µM)
OC[C@H]1O[C@H](Oc2cc(Cl)ccc2Oc2ccc(Cl)cc2Cl)[C@H](O)[C@@H](O)[C@@H]1O [α-D-Glucoside, triclosan-α-D-glucopyranoside] | 128 mg/L (≈ 283 µM) | 2 mg/L (≈ 4.43 µM) | 1 mg/L (≈ 2.21 µM) | 1 mg/L (≈ 2.21 µM) | 1 mg/L (≈ 2.21 µM) | 4 mg/L (≈ 8.86 µM) | 16 mg/L (≈ 35.4 µM) | 32 mg/L (≈ 70.8 µM) | 0.5 mg/L (≈ 1.11 µM) | 128 mg/L (≈ 283 µM) | 64 mg/L (≈ 142 µM) | 128 mg/L (≈ 283 µM) | 128 mg/L (≈ 283 µM) | 0.25 to 1 mg/L | 4 mg/L (≈ 8.86 µM) | 1 mg/L (≈ 2.21 µM) | 1 mg/L (≈ 2.21 µM) | 4 mg/L (≈ 8.86 µM) | 4 mg/L (≈ 8.86 µM) | >256 mg/L | MIC (E. coli): 0.5 to 4 mg/L; MIC (S. haemolyticus): 1 mg/L (≈ 2.21 µM); MIC (Str. viridans): 64 mg/L (≈ 142 µM); MIC ([4]; with inducer 100 μg/ml): 1 mg/L (≈ 2.21 µM); MIC ([4]; without inducer): 1 mg/L (≈ 2.21 µM); MIC (Str. pneumoniae): 32 mg/L (≈ 70.8 µM)
OC[C@H]1O[C@H](Oc2cc(Cl)ccc2Oc2ccc(Cl)cc2Cl)[C@@H](O)[C@@H](O)[C@@H]1O [α-D-Mannoside, triclosan-α-D-mannopyranoside] | 256 mg/L (≈ 567 µM) | 32 mg/L (≈ 70.8 µM) | 16 mg/L (≈ 35.4 µM) | 8 mg/L (≈ 17.7 µM) | 8 mg/L (≈ 17.7 µM) | 64 mg/L (≈ 142 µM) | 32 mg/L (≈ 70.8 µM) | 32 mg/L (≈ 70.8 µM) | 16 mg/L (≈ 35.4 µM) | 128 mg/L (≈ 283 µM) | 64 mg/L (≈ 142 µM) | 128 mg/L (≈ 283 µM) | 128 mg/L (≈ 283 µM) | 4 to 8 mg/L | 64 mg/L (≈ 142 µM) | 8 mg/L (≈ 17.7 µM) | 16 mg/L (≈ 35.4 µM) | 32 mg/L (≈ 70.8 µM) | 32 mg/L (≈ 70.8 µM) | >256 mg/L | MIC (E. coli): 8 to 64 mg/L; MIC (S. haemolyticus): 8 mg/L (≈ 17.7 µM); MIC (Str. viridans): 128 mg/L (≈ 283 µM); inhibition of growth at 64 μg/ml in Nutrient Broth [5]: inhibited; MIC ([4]; with inducer 100 μg/ml): 2 mg/L (≈ 4.43 µM); MIC ([4]; without inducer): 4 mg/L (≈ 8.86 µM); MIC (Str. pneumoniae): 64 mg/L (≈ 142 µM)
O[C@@H]1[C@H](Oc2cc(Cl)ccc2Oc2ccc(Cl)cc2Cl)OC[C@@H](O)[C@H]1O [β-D-Arabinoside, triclosan-β-D-arabinopyranoside] | 256 mg/L (≈ 607 µM) | 64 mg/L (≈ 152 µM) | 32 mg/L (≈ 75.9 µM) | 16 mg/L (≈ 37.9 µM) | 16 mg/L (≈ 37.9 µM) | 64 mg/L (≈ 152 µM) | 32 mg/L (≈ 75.9 µM) | 32 mg/L (≈ 75.9 µM) | 8 mg/L (≈ 19 µM) | 128 mg/L (≈ 304 µM) | 64 mg/L (≈ 152 µM) | 128 mg/L (≈ 304 µM) | 128 mg/L (≈ 304 µM) | 8 to 16 mg/L | 256 mg/L (≈ 607 µM) | 16 mg/L (≈ 37.9 µM) | 32 mg/L (≈ 75.9 µM) | 64 mg/L (≈ 152 µM) | 64 mg/L (≈ 152 µM) | >256 mg/L | MIC (E. coli): 8 to 32 mg/L; MIC (S. haemolyticus): 16 mg/L (≈ 37.9 µM); MIC (Str. viridans): 128 mg/L (≈ 304 µM); MIC ([4]; with inducer 100 μg/ml): 8 mg/L (≈ 19 µM); MIC ([4]; without inducer): 4 mg/L (≈ 9.49 µM); MIC (Str. pneumoniae): 64 mg/L (≈ 152 µM)
OC[C@H]1O[C@@H](Oc2cc(Cl)ccc2Oc2ccc(Cl)cc2Cl)[C@H](O)[C@@H](O)[C@@H]1O [β-D-Glucoside, triclosan-β-D-glucopyranoside] | >256 mg/L | 32 mg/L (≈ 70.8 µM) | 16 mg/L (≈ 35.4 µM) | 1 mg/L (≈ 2.21 µM) | 16 mg/L (≈ 35.4 µM) | 32 mg/L (≈ 70.8 µM) | 16 mg/L (≈ 35.4 µM) | 32 mg/L (≈ 70.8 µM) | 4 mg/L (≈ 8.86 µM) | >256 mg/L | 64 mg/L (≈ 142 µM) | 128 mg/L (≈ 283 µM) | 256 mg/L (≈ 567 µM) | 4 to 8 mg/L | 32 mg/L (≈ 70.8 µM) | 2 mg/L (≈ 4.43 µM) | 16 mg/L (≈ 35.4 µM) | 8 mg/L (≈ 17.7 µM) | 64 mg/L (≈ 142 µM) | >256 mg/L | MIC (E. coli): 16 to 32 mg/L; MIC (S. haemolyticus): 16 mg/L (≈ 35.4 µM); MIC (Str. viridans): 256 mg/L (≈ 567 µM); MIC ([4]; with inducer 100 μg/ml): 0.5 mg/L (≈ 1.11 µM); MIC ([4]; without inducer): 0.5 mg/L (≈ 1.11 µM); MIC (Str. pneumoniae): 128 mg/L (≈ 283 µM)

From patent US9908912B2, “Triclosan derivatives and uses thereof” (priority 2012, dated 2018)
